The text below walks through data of the NIST ThermoML archive (doi:10.1021/je9000608).

By mass density is commonly meant mass per unit of volume. As usually defined, the vapor or sublimation pressure is the equilibrium pressure above the liquid or solid. By refractive index is commonly meant a measure of how strongly the sample bends light.

± gives the expanded uncertainty stated by the source.

For data set [1] the following is noted: Liquid; for mass density: 101.33 kPa, Pycnometric method; for vapor or sublimation pressure: Ebulliometric method (Recirculating still).
A short description of data set [2]: refractive index (Na D-line) (dimensionless). The note with it: 101.33 kPa, Liquid, Standard Abbe refractometry.

`CCCCCCO` [hexan-1-ol]: the mass density in data set [1] (298.15 K) worked out at 815.3 ± 0.8 kg/m3. Besides, the “vapor or sublimation pressure” value in data set [1] (428.45 K) is given as 95.6 ± 1 kPa. Moreover, the refractive index in data set [2] (298.15 K) stood at 1.4157 ± 0.0008.

As for `ClC=C(Cl)Cl` [trichloroethene], the mass density in data set [1] (303.15 K) came to 1451.3 ± 1.6 kg/m3. Besides, the “vapor or sublimation pressure” value in data set [1] (358.45 K) amounted to 95.6 ± 1 kPa. Also, in data set [2] (303.15 K), the refractive index is listed as 1.475 ± 0.0008.

Take `ClCCCl` [1,2-dichloroethane]: the mass density in data set [1] (293.15 K) was 1252.9 ± 1.3 kg/m3. Further, the “vapor or sublimation pressure” value in data set [1] (355.15 K) came to 95.6 ± 1 kPa. In addition, the refractive index in data set [2] (293.15 K) amounted to 1.4196 ± 0.0008.

On to `ClC(Cl)C(Cl)Cl` [1,1,2,2-tetrachloroethane], for which the mass density in data set [1] (293.15 K) came out at 1593 ± 1.8 kg/m3. Also, in data set [1] (417.25 K), the “vapor or sublimation pressure” value came out at 95.6 ± 1 kPa. Further, the refractive index in data set [2] (293.15 K) was 1.494 ± 0.0008.

Turning to `ClC(Cl)=C(Cl)Cl` [tetrachloroethene], in data set [1] (293.15 K), the mass density is listed as 1623 ± 1.8 kg/m3. Besides, in data set [1] (392.15 K), the “vapor or sublimation pressure” value was found to be 95.6 ± 1 kPa. In data set [2] (293.15 K), the refractive index came to 1.5058 ± 0.0008.
